From the kinase profiling compilation of Christmann-Franck et al. (2016)
Values belong to the molecule of their own block, whether it stands above or below them.

Legend:
Experiment in all cases: radiometric filter-binding kinase assay
[1] = biological target: MAPK12 (human) (UniProt P53778)
[2] = biological target: CHEK2 (human) (UniProt O96017)
[3] = test system: SGK1 (human), O00141 [S422D]
[4] = biological target: HIPK2 (human) (UniProt Q9H2X6)
[5] = biological target: DYRK2 (human) (UniProt Q92630)
[6] = biological target: MYLK (human) (UniProt Q15746)
[7] = biological target: MAPK14 (human) (UniProt Q16539)
Sequence of MAPK14 (human) (Q16539 whole entry, looked up): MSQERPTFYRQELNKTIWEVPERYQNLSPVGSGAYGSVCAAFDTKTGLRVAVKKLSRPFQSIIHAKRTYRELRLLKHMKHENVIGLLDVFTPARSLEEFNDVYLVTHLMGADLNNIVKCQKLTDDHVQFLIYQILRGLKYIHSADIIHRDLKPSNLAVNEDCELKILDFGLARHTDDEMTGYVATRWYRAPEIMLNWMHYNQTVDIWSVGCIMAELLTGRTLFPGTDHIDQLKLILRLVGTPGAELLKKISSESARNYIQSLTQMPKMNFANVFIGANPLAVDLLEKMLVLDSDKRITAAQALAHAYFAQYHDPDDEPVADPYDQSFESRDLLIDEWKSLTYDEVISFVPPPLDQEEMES

[8] = biological target: NEK2 (human) (UniProt P51955)
[9] = biological target: PRKCA (human) (UniProt P17252)
[10] = biological target: PIM3 (human) (UniProt Q86V86)
[11] = biological target: FLT1 (human) (UniProt P17948)
[12] = test system: RPS6KB1 (human), P23443 [T412E]
[13] = biological target: STK3 (human) (UniProt Q13188)
Sequence of STK3 (human) (Q13188 whole entry, looked up): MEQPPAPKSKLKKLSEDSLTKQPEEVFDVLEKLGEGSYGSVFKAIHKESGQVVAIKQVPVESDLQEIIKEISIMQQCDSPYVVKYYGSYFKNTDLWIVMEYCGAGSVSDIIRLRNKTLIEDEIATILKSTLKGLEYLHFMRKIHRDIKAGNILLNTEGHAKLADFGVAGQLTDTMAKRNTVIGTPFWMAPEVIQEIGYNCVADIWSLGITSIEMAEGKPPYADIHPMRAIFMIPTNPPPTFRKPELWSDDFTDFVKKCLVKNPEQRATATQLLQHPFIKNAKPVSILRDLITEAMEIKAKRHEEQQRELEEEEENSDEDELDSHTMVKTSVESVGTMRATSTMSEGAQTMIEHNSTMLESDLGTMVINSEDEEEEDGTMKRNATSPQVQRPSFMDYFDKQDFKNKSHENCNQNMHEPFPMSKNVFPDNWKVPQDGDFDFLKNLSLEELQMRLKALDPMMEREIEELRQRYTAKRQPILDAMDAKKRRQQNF

[14] = biological target: MELK (human) (UniProt Q14680)
[15] = biological target: EPHA2 (human) (UniProt P29317)
Sequence of EPHA2 (human) (P29317 whole entry, looked up): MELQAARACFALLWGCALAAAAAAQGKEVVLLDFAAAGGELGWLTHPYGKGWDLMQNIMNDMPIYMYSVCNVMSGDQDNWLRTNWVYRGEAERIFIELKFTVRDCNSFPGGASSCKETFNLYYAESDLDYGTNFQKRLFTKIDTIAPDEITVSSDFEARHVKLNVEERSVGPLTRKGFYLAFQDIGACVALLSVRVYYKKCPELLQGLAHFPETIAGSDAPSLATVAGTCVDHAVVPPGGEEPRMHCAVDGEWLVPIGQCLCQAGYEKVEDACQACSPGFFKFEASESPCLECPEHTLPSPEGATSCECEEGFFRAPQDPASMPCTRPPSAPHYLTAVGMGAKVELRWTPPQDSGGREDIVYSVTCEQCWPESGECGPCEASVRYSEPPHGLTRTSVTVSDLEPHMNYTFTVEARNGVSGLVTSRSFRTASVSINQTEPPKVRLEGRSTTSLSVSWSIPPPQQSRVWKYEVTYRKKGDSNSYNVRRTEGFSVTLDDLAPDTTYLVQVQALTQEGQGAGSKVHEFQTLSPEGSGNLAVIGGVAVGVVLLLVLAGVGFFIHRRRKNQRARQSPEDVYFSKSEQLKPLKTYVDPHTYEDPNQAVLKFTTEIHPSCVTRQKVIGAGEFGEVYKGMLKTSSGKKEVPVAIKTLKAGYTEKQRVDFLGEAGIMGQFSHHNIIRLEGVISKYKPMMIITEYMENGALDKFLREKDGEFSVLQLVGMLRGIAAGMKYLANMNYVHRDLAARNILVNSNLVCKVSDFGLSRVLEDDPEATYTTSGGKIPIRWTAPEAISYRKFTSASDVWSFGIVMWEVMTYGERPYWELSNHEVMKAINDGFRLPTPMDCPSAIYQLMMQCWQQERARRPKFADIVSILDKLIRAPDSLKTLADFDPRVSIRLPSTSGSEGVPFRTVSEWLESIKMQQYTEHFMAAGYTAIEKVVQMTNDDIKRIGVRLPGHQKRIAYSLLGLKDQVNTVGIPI

[16] = biological target: DYRK3 (human) (UniProt O43781)
[17] = test system: ROCK2 (rat); conditions: accession and sequence are those of the human protein
[18] = biological target: MAPKAPK5 (human) (UniProt Q8IW41)
[19] = biological target: RPS6KA1 KD1 KD2 (human) (UniProt Q15418)
Sequence of RPS6KA1 KD1 KD2 (human) (Q15418 whole entry, looked up): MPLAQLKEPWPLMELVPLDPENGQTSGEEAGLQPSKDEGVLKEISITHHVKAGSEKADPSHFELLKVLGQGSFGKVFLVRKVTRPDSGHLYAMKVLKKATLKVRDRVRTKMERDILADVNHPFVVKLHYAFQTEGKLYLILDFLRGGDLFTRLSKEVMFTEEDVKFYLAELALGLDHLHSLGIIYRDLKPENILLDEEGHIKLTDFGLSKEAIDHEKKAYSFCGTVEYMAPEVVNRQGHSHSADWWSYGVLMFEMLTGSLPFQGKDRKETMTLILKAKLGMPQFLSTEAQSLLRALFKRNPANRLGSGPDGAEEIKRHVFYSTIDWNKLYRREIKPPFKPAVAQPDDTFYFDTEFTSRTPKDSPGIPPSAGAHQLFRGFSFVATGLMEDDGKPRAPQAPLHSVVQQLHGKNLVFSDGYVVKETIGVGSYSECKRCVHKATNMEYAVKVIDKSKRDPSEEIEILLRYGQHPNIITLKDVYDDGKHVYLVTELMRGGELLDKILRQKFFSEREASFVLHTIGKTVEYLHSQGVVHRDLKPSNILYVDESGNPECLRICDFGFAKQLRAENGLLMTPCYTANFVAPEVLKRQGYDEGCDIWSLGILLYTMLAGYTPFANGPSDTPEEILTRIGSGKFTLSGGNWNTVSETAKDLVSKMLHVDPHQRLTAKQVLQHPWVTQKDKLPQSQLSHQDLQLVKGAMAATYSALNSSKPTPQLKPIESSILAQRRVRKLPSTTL

[20] = biological target: PKN2 (human) (UniProt Q16513)
[21] = biological target: PIM1 (human) (UniProt P11309)
Sequence of PIM1 (human) (P11309 whole entry, looked up): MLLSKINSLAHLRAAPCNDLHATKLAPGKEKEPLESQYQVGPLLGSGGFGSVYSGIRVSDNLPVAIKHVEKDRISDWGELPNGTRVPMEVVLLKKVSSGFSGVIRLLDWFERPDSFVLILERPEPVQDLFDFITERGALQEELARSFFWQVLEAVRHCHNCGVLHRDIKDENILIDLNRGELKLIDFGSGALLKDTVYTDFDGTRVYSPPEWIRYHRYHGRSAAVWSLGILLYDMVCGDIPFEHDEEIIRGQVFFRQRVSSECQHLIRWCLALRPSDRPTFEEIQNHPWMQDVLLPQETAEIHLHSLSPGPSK

[22] = biological target: IKBKE (human) (UniProt Q14164)
[23] = biological target: MAPKAPK2 (human) (UniProt P49137)

Sequence of SGK1 (human), O00141 [S422D] (O00141 whole entry S422D, looked up): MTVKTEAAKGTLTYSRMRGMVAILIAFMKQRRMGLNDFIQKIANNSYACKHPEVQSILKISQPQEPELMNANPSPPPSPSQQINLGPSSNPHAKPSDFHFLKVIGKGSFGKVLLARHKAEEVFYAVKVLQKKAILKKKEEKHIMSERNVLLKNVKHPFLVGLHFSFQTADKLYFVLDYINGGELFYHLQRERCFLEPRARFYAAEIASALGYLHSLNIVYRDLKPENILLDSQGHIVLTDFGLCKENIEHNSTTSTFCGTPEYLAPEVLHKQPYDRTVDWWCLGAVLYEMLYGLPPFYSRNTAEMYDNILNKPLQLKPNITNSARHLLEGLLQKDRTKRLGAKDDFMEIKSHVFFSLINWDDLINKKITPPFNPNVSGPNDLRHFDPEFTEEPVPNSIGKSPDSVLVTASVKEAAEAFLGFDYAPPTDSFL
Sequence of HIPK2 (human) (Q9H2X6 whole entry, looked up): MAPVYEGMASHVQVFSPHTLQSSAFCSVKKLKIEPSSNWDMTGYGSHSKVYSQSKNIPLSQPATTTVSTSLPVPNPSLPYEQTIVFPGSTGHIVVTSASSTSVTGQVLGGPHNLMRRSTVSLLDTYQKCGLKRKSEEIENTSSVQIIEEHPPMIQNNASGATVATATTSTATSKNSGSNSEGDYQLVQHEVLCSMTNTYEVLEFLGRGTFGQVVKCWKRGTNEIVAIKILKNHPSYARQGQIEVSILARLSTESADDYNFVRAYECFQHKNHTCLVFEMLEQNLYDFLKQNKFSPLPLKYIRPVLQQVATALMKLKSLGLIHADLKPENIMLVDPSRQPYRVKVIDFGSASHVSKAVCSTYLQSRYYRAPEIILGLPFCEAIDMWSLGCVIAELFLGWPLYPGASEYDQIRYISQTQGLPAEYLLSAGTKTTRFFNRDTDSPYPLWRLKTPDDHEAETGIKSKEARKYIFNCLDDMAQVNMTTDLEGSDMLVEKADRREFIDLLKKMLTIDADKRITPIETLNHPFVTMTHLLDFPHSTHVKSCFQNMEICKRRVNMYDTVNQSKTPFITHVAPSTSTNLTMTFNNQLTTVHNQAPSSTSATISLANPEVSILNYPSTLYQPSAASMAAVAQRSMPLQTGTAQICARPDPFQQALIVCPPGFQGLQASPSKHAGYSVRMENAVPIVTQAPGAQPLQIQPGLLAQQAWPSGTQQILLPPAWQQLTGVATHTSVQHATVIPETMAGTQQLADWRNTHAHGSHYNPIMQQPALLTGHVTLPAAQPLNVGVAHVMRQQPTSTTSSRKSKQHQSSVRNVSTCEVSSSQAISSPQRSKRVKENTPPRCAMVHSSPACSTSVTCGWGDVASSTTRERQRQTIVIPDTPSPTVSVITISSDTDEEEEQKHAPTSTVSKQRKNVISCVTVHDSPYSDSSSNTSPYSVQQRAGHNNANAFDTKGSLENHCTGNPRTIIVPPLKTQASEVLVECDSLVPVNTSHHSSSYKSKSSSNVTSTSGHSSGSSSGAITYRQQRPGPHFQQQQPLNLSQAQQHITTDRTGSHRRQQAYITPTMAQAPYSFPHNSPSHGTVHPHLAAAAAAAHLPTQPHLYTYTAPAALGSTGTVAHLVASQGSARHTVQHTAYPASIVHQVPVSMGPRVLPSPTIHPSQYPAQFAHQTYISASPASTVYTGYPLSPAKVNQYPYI

residual activity ([1]; compound 0.001 µM): 89%
residual activity ([1]; compound 0.01 µM): 87%
residual activity ([1]; compound 0.1 µM): 82%
residual activity ([2]; compound 0.001 µM): 32%
residual activity ([2]; compound 0.01 µM): 7%
residual activity ([2]; compound 0.1 µM): 0%
residual activity ([3]; compound 0.001 µM): 98%
residual activity ([3]; compound 0.01 µM): 86%
residual activity ([3]; compound 0.1 µM): 58%
residual activity ([4]; compound 0.001 µM): 89%
residual activity ([4]; compound 0.01 µM): 82%
residual activity ([4]; compound 0.1 µM): 51%
residual activity ([5]; compound 0.001 µM): 88%
residual activity ([5]; compound 0.01 µM): 59%
residual activity ([5]; compound 0.1 µM): 18%
residual activity ([6]; compound 0.001 µM): 90%
residual activity ([6]; compound 0.01 µM): 89%
residual activity ([6]; compound 0.1 µM): 65%
residual activity ([7]; compound 0.001 µM): 87%
residual activity ([7]; compound 0.01 µM): 86%
residual activity ([7]; compound 0.1 µM): 84%
residual activity ([8]; compound 0.001 µM): 92%
residual activity ([8]; compound 0.01 µM): 92%
residual activity ([8]; compound 0.1 µM): 86%
residual activity ([9]; compound 0.001 µM): 102%
residual activity ([9]; compound 0.01 µM): 113%
residual activity ([9]; compound 0.1 µM): 107%
residual activity ([10]; compound 0.001 µM): 96%
residual activity ([10]; compound 0.01 µM): 73%
residual activity ([10]; compound 0.1 µM): 25%
residual activity ([11]; compound 0.001 µM): 95%
residual activity ([11]; compound 0.01 µM): 50%
residual activity ([11]; compound 0.1 µM): 13%
residual activity ([12]; compound 0.001 µM): 95%
residual activity ([12]; compound 0.01 µM): 91%
residual activity ([12]; compound 0.1 µM): 83%
residual activity ([13]; compound 0.001 µM): 83%
residual activity ([13]; compound 0.01 µM): 36%
residual activity ([13]; compound 0.1 µM): 10%
residual activity ([14]; compound 0.001 µM): 86%
residual activity ([14]; compound 0.01 µM): 47%
residual activity ([14]; compound 0.1 µM): 9%
residual activity ([15]; compound 0.001 µM): 97%
residual activity ([15]; compound 0.01 µM): 101%
residual activity ([15]; compound 0.1 µM): 87%
residual activity ([16]; compound 0.001 µM): 83%
residual activity ([16]; compound 0.01 µM): 74%
residual activity ([16]; compound 0.1 µM): 33%
residual activity ([17]; compound 0.001 µM): 88%
residual activity ([17]; compound 0.01 µM): 90%
residual activity ([17]; compound 0.1 µM): 84%
residual activity ([18]; compound 0.001 µM): 100%
residual activity ([18]; compound 0.01 µM): 90%
residual activity ([18]; compound 0.1 µM): 94%
residual activity ([19]; compound 0.001 µM): 89%
residual activity ([19]; compound 0.01 µM): 75%
residual activity ([19]; compound 0.1 µM): 24%
residual activity ([20]; compound 0.001 µM): 67%
residual activity ([20]; compound 0.01 µM): 61%
residual activity ([20]; compound 0.1 µM): 36%
residual activity ([21]; compound 0.001 µM): 97%
residual activity ([21]; compound 0.01 µM): 98%
residual activity ([21]; compound 0.1 µM): 69%
residual activity ([22]; compound 0.001 µM): 85%
residual activity ([22]; compound 0.01 µM): 84%
residual activity ([22]; compound 0.1 µM): 69%
residual activity ([23]; compound 0.001 µM): 98%
residual activity ([23]; compound 0.01 µM): 86%
SMILES: C/C(=C1/C(=O)Nc2ccc(NC(N)=O)cc21)c1ccc[nH]1

residual activity ([1]; compound 1.0 µM): 108%
residual activity ([1]; compound 10.0 µM): 106%
residual activity ([2]; compound 1.0 µM): 81%
residual activity ([2]; compound 10.0 µM): 101%
residual activity ([3]; compound 1.0 µM): 111%
residual activity ([3]; compound 10.0 µM): 109%
residual activity ([4]; compound 1.0 µM): 101%
residual activity ([4]; compound 10.0 µM): 156%
residual activity ([5]; compound 1.0 µM): 103%
residual activity ([5]; compound 10.0 µM): 111%
residual activity ([6]; compound 1.0 µM): 92%
residual activity ([6]; compound 10.0 µM): 74%
residual activity ([7]; compound 1.0 µM): 82%
residual activity ([7]; compound 10.0 µM): 98%
residual activity ([8]; compound 1.0 µM): 94%
residual activity ([8]; compound 10.0 µM): 153%
residual activity ([9]; compound 1.0 µM): 96%
residual activity ([9]; compound 10.0 µM): 88%
residual activity ([10]; compound 1.0 µM): 86%
residual activity ([10]; compound 10.0 µM): 72%
residual activity ([11]; compound 1.0 µM): 84%
residual activity ([11]; compound 10.0 µM): 74%
residual activity ([12]; compound 1.0 µM): 98%
residual activity ([12]; compound 10.0 µM): 105%
residual activity ([13]; compound 1.0 µM): 97%
residual activity ([13]; compound 10.0 µM): 122%
residual activity ([14]; compound 1.0 µM): 79%
residual activity ([14]; compound 10.0 µM): 85%
residual activity ([15]; compound 1.0 µM): 103%
residual activity ([15]; compound 10.0 µM): 113%
residual activity ([16]; compound 1.0 µM): 83%
residual activity ([16]; compound 10.0 µM): 81%
residual activity ([17]; compound 1.0 µM): 99%
residual activity ([17]; compound 10.0 µM): 91%
residual activity ([18]; compound 10.0 µM): 39%
residual activity ([19]; compound 1.0 µM): 106%
residual activity ([19]; compound 10.0 µM): 113%
residual activity ([20]; compound 1.0 µM): 102%
residual activity ([20]; compound 10.0 µM): 92%
residual activity ([21]; compound 1.0 µM): 79%
residual activity ([21]; compound 10.0 µM): 83%
residual activity ([22]; compound 1.0 µM): 92%
residual activity ([22]; compound 10.0 µM): 92%
residual activity ([23]; compound 1.0 µM): 97%
residual activity ([23]; compound 10.0 µM): 84%
SMILES: Cc1cc(SCc2sc(-c3ccc(C(F)(F)F)cc3)nc2C)ccc1OCC(=O)O
